Laboratory results as given in US20250230472A1, “EXTRACTION OF ALKANOIC ACIDS” (priority 2018, published 2025).

Assay: Distribution coefficient of carboxylic acids, water / 20% TAPO in Fragoltherm, two-phase co-culture
Assay type: physicochemical
Conditions: water and 20% TAPO in Fragoltherm, pH 6.6, after 67 h cultivation at 37° C.
Description: The bacterium Clostridium kluyveri was cultivated in a co culture with Clostridium autoethanogenum for the biotransformation of ethanol and acetate to medium chain fatty acids. For the inSitu extraction of the produced acids the aqueous phase was overlayed with a mixture of Fragoltherm Q-32-N with trialkylphosphineoxide (TAPO). All cultivation steps were carried out under anaerobic conditions, the preculture in a stainless steel bubble column loop reactor and the main culture in a pressure-resistant glass bottle that can be closed airtight with a butyl rubber stopper.
The aqueous phase was then overlayed with 20 ml anaerobisized extracting agent (20% trialkylphosphineoxid (TAPO) in Fragoltherm Q-32-N). The bottle with the two-layer phases was then cultivated at 37° C., 150 rpm and with a gas atmosphere of 10% H2 and 90% N2 in an open water bath shaker for 67 h. The gas atmosphere in the bottle was flushed once a day for 10 min with pure N2.
During cultivation several 5 mL samples from both, the aqueous and the organic phase, were taken to determinate OD600 nm, pH and product formation. The determination of the product concentrations in the aqueous phase was performed by semiquantitative 1H-NMR spectroscopy and high performance liquid chromatography (HPLC) and in the organic phase by semiquantitative 1H-NMR spectroscopy and gas chromatography (GC). […]

SMILES	distribution coefficient K(D)
CCCCCC(=O)O [hexanoic acid]	4.33
CCCCCCCC(=O)O [octanoic acid]	108
